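These data come from cells grown in 96-well plates and exposed to compound for 48 hours at five concentrations. At the TGI there is no net growth.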
Key:
Experiment in all cases: inhibition of tumour cell growth, NCI panel, 48 h
COLO 205 colon = tested on: COLO 205 colon
OVCAR-4 ovarian = tested on: OVCAR-4 ovarian
RPMI-8226 leukemia = tested on: RPMI-8226 leukemia
KM12 colon = tested on: KM12 colon
UACC-257 melanoma = tested on: UACC-257 melanoma
SR leukemia = tested on: SR leukemia
OVCAR-8 ovarian = tested on: OVCAR-8 ovarian
LOX IMVI melanoma = tested on: LOX IMVI melanoma
MALME-3M melanoma = tested on: MALME-3M melanoma
KM20L2 colon = tested on: KM20L2 colon
CAKI-1 renal = tested on: CAKI-1 renal
LXFL 529 NSCLC = tested on: LXFL 529 NSCLC
SK-MEL-28 melanoma = tested on: SK-MEL-28 melanoma
SF-268 CNS = tested on: SF-268 CNS
SK-MEL-2 melanoma = tested on: SK-MEL-2 melanoma
SN12C renal = tested on: SN12C renal
DLD-1 colon = tested on: DLD-1 colon
HCC-2998 colon = tested on: HCC-2998 colon
HOP-92 NSCLC = tested on: HOP-92 NSCLC
SF-295 CNS = tested on: SF-295 CNS
EKVX NSCLC = tested on: EKVX NSCLC
SW-620 colon = tested on: SW-620 colon
TK-10 renal = tested on: TK-10 renal
UO-31 renal = tested on: UO-31 renal
DMS 114 small cell lung = tested on: DMS 114 small cell lung
HOP-18 NSCLC = tested on: HOP-18 NSCLC
XF 498 CNS = tested on: XF 498 CNS
A498 renal = tested on: A498 renal
U251 CNS = tested on: U251 CNS
RXF 393 renal = tested on: RXF 393 renal
ACHN renal = tested on: ACHN renal
HOP-62 NSCLC = tested on: HOP-62 NSCLC
RXF-631 renal = tested on: RXF-631 renal
NCI-H522 lung = tested on: NCI-H522 lung
UACC-62 melanoma = tested on: UACC-62 melanoma
786-0 renal = tested on: 786-0 renal
M19-MEL melanoma = tested on: M19-MEL melanoma
HCT-116 colon = tested on: HCT-116 colon
CCRF-CEM leukemia = tested on: CCRF-CEM leukemia
OVCAR-5 ovarian = tested on: OVCAR-5 ovarian
NCI-H23 lung = tested on: NCI-H23 lung
NCI-H226 lung = tested on: NCI-H226 lung
HT29 colon = tested on: HT29 colon
M14 melanoma = tested on: M14 melanoma
NCI-H460 lung = tested on: NCI-H460 lung
SK-OV-3 ovarian = tested on: SK-OV-3 ovarian
SNB-75 CNS = tested on: SNB-75 CNS
SNB-19 CNS = tested on: SNB-19 CNS
DMS 273 small cell lung = tested on: DMS 273 small cell lung
A549 NSCLC = tested on: A549 NSCLC
SF-539 CNS = tested on: SF-539 CNS
HL-60(TB) leukemia = tested on: HL-60(TB) leukemia
IGROV1 ovarian = tested on: IGROV1 ovarian
OVCAR-3 ovarian = tested on: OVCAR-3 ovarian
SK-MEL-5 melanoma = tested on: SK-MEL-5 melanoma
K-562 leukemia = tested on: K-562 leukemia
HCT-15 colon = tested on: HCT-15 colon
MOLT-4 leukemia = tested on: MOLT-4 leukemia
SNB-78 CNS = tested on: SNB-78 CNS

In the case of CCC1(O)C(=O)OCc2c1cc1n(c2=O)Cc2cc3ccc(CO)cc3nc2-1 (stereo not drawn), the TGI (COLO 205 colon) is reported as 52.3 µM, the TGI (OVCAR-4 ovarian) is reported as > 100 µM and the TGI (RPMI-8226 leukemia) is reported as > 37.3 µM. For the same molecule, the TGI (KM12 colon) was > 100 µM, the TGI (UACC-257 melanoma) was > 100 µM and the TGI (SR leukemia) was 0.298 µM. For the same molecule, the TGI (OVCAR-8 ovarian) was > 41.3 µM, the TGI (LOX IMVI melanoma) was 12.5 µM and the TGI (MALME-3M melanoma) was 59.9 µM. The TGI (KM20L2 colon) was > 69.9 µM, the TGI (CAKI-1 renal) was 23.5 µM and the TGI (LXFL 529 NSCLC) was > 100 µM. The TGI (SK-MEL-28 melanoma) was > 100 µM, the TGI (SF-268 CNS) was > 100 µM and the TGI (SK-MEL-2 melanoma) was 64.5 µM. The TGI (SN12C renal) was > 28.8 µM, the TGI (DLD-1 colon) was > 100 µM and the TGI (HCC-2998 colon) was > 80.2 µM. The TGI (HOP-92 NSCLC) was > 87.3 µM, the TGI (SF-295 CNS) was > 79.3 µM and the TGI (EKVX NSCLC) was > 100 µM. For the same molecule, the TGI (SW-620 colon) was > 100 µM, the TGI (TK-10 renal) was > 100 µM and the TGI (UO-31 renal) was 17 µM. The TGI (DMS 114 small cell lung) was > 100 µM, the TGI (HOP-18 NSCLC) was > 93.9 µM and the TGI (XF 498 CNS) was 16.8 µM. The TGI (A498 renal) was 24.5 µM, the TGI (U251 CNS) was 5.04 µM and the TGI (RXF 393 renal) was > 44 µM. The TGI (ACHN renal) was 11 µM, the TGI (HOP-62 NSCLC) was 2.56 µM and the TGI (RXF-631 renal) was > 100 µM. It also gave a TGI (NCI-H522 lung) of 26.8 µM, a TGI (UACC-62 melanoma) of 7.34 µM and a TGI (786-0 renal) of 7.51 µM. For the same molecule, the TGI (M19-MEL melanoma) was 54 µM, the TGI (HCT-116 colon) was 31.1 µM and the TGI (CCRF-CEM leukemia) was 0.987 µM. For the same molecule, the TGI (OVCAR-5 ovarian) was 78.5 µM, the TGI (NCI-H23 lung) was 10.2 µM and the TGI (NCI-H226 lung) was 6.58 µM. The TGI (HT29 colon) was > 81.4 µM, the TGI (M14 melanoma) was 33.1 µM and the TGI (NCI-H460 lung) was 22.5 µM. For the same molecule, the TGI (SK-OV-3 ovarian) was > 100 µM, the TGI (SNB-75 CNS) was 9.77 µM and the TGI (SNB-19 CNS) was > 100 µM. For the same molecule, the TGI (DMS 273 small cell lung) was 11.1 µM, the TGI (A549 NSCLC) was > 100 µM and the TGI (SF-539 CNS) was 4.51 µM. The TGI (HL-60(TB) leukemia) was > 27 µM, the TGI (IGROV1 ovarian) was > 77.4 µM and the TGI (OVCAR-3 ovarian) was 24.4 µM. For the same molecule, the TGI (SK-MEL-5 melanoma) was 11.3 µM, the TGI (K-562 leukemia) was > 100 µM and the TGI (HCT-15 colon) was > 100 µM.

In the case of FC(F)(F)c1cccc2ns[s+]c12, the TGI (COLO 205 colon) is reported as > 100 µM, the TGI (OVCAR-4 ovarian) is reported as > 100 µM and the TGI (KM12 colon) is reported as > 100 µM. For the same molecule, the TGI (UACC-257 melanoma) was > 100 µM, the TGI (SR leukemia) was > 100 µM and the TGI (OVCAR-8 ovarian) was > 100 µM. For the same molecule, the TGI (LOX IMVI melanoma) was > 100 µM, the TGI (MALME-3M melanoma) was > 100 µM and the TGI (KM20L2 colon) was > 100 µM. For the same molecule, the TGI (CAKI-1 renal) was > 100 µM, the TGI (LXFL 529 NSCLC) was > 100 µM and the TGI (SK-MEL-28 melanoma) was > 100 µM. For the same molecule, the TGI (SF-268 CNS) was > 100 µM, the TGI (SK-MEL-2 melanoma) was > 100 µM and the TGI (SN12C renal) was > 100 µM. The TGI (MOLT-4 leukemia) was > 100 µM, the TGI (DLD-1 colon) was > 100 µM and the TGI (HCC-2998 colon) was > 100 µM. For the same molecule, the TGI (SF-295 CNS) was > 100 µM, the TGI (EKVX NSCLC) was > 100 µM and the TGI (SW-620 colon) was > 100 µM. The TGI (TK-10 renal) was > 100 µM, the TGI (UO-31 renal) was > 100 µM and the TGI (HOP-18 NSCLC) was > 100 µM. The TGI (XF 498 CNS) was > 100 µM, the TGI (A498 renal) was > 100 µM and the TGI (U251 CNS) was > 100 µM. For the same molecule, the TGI (RXF 393 renal) was > 100 µM, the TGI (ACHN renal) was > 100 µM and the TGI (HOP-62 NSCLC) was > 100 µM. For the same molecule, the TGI (RXF-631 renal) was > 100 µM, the TGI (NCI-H522 lung) was > 100 µM and the TGI (UACC-62 melanoma) was > 100 µM. For the same molecule, the TGI (786-0 renal) was > 100 µM, the TGI (M19-MEL melanoma) was > 100 µM and the TGI (HCT-116 colon) was > 100 µM. The TGI (CCRF-CEM leukemia) was > 100 µM, the TGI (OVCAR-5 ovarian) was > 100 µM and the TGI (NCI-H23 lung) was > 100 µM. For the same molecule, the TGI (NCI-H226 lung) was > 100 µM, the TGI (HT29 colon) was > 100 µM and the TGI (M14 melanoma) was > 100 µM. For the same molecule, the TGI (NCI-H460 lung) was > 100 µM, the TGI (SK-OV-3 ovarian) was > 100 µM and the TGI (SNB-75 CNS) was > 100 µM. The TGI (SNB-19 CNS) was > 100 µM, the TGI (DMS 273 small cell lung) was > 100 µM and the TGI (A549 NSCLC) was > 100 µM. The TGI (SF-539 CNS) was > 100 µM, the TGI (HL-60(TB) leukemia) was > 100 µM and the TGI (IGROV1 ovarian) was > 100 µM. For the same molecule, the TGI (SNB-78 CNS) was > 100 µM, the TGI (OVCAR-3 ovarian) was > 100 µM and the TGI (SK-MEL-5 melanoma) was > 100 µM. For the same molecule, the TGI (K-562 leukemia) was > 100 µM.

With N#Cc1ccc(Sc2ccccc2)cc1C#N the TGI (COLO 205 colon) was > 100 µM, the TGI (OVCAR-4 ovarian) was > 100 µM and the TGI (RPMI-8226 leukemia) was 53.9 µM. For the same molecule, the TGI (KM12 colon) was > 100 µM, the TGI (UACC-257 melanoma) was > 100 µM and the TGI (SR leukemia) was 39.9 µM. The TGI (OVCAR-8 ovarian) was > 100 µM, the TGI (LOX IMVI melanoma) was 41.7 µM and the TGI (MALME-3M melanoma) was > 100 µM. The TGI (KM20L2 colon) was > 100 µM, the TGI (CAKI-1 renal) was > 100 µM and the TGI (LXFL 529 NSCLC) was > 100 µM. For the same molecule, the TGI (SK-MEL-28 melanoma) was > 100 µM, the TGI (SF-268 CNS) was 51.6 µM and the TGI (SK-MEL-2 melanoma) was > 100 µM. For the same molecule, the TGI (SN12C renal) was > 100 µM, the TGI (MOLT-4 leukemia) was > 100 µM and the TGI (DLD-1 colon) was > 100 µM. The TGI (HCC-2998 colon) was > 100 µM, the TGI (HOP-92 NSCLC) was 74.4 µM and the TGI (SF-295 CNS) was > 100 µM. The TGI (EKVX NSCLC) was > 100 µM, the TGI (TK-10 renal) was > 100 µM and the TGI (UO-31 renal) was > 100 µM. For the same molecule, the TGI (HOP-18 NSCLC) was > 100 µM, the TGI (XF 498 CNS) was 58 µM and the TGI (A498 renal) was > 100 µM. For the same molecule, the TGI (U251 CNS) was > 100 µM, the TGI (RXF 393 renal) was 81 µM and the TGI (ACHN renal) was > 100 µM. For the same molecule, the TGI (HOP-62 NSCLC) was > 100 µM, the TGI (RXF-631 renal) was > 100 µM and the TGI (NCI-H522 lung) was > 100 µM. The TGI (UACC-62 melanoma) was > 100 µM, the TGI (786-0 renal) was 71 µM and the TGI (M19-MEL melanoma) was > 100 µM. For the same molecule, the TGI (HCT-116 colon) was 40.6 µM, the TGI (CCRF-CEM leukemia) was 43.3 µM and the TGI (OVCAR-5 ovarian) was > 100 µM. For the same molecule, the TGI (NCI-H23 lung) was > 100 µM, the TGI (NCI-H226 lung) was > 100 µM and the TGI (HT29 colon) was > 100 µM. For the same molecule, the TGI (M14 melanoma) was > 100 µM, the TGI (NCI-H460 lung) was 46.6 µM and the TGI (SK-OV-3 ovarian) was > 100 µM. For the same molecule, the TGI (SNB-75 CNS) was 52.1 µM, the TGI (SNB-19 CNS) was > 100 µM and the TGI (DMS 273 small cell lung) was 36.6 µM. The TGI (A549 NSCLC) was > 100 µM, the TGI (SF-539 CNS) was 47.4 µM and the TGI (HL-60(TB) leukemia) was > 100 µM. For the same molecule, the TGI (IGROV1 ovarian) was > 100 µM, the TGI (OVCAR-3 ovarian) was > 100 µM and the TGI (SK-MEL-5 melanoma) was > 100 µM. For the same molecule, the TGI (K-562 leukemia) was > 100 µM and the TGI (HCT-15 colon) was 30.6 µM.

From PubChem BioAssay (NCI)
